# From patent publication US7244743B2, “Non-peptidic BRS-3 agonists” (Solvay Pharmaceuticals GmbH, priority 2002, dated 2007)
# Square brackets hold non-standard residues; d marks the D form. Peptide text beside a SMILES is read from it. * marks the point of attachment. NHPhenethyl = c1ccc(CCN*)cc1; PhAc = O=C(Cc1ccccc1)*
# How the values were obtained:
# [1] = biological target: T1, human BRS-3 (subtype 3 of the human bombesin receptor) (Homo sapiens, UniProt P32247); assay: FLIPR test: agonistic activity on BRS-3 (Ca2+ fluorescence, Fluo4) in transfected CHO cells; type: cell-based; conditions: for EC50: CHO-K1 cells co-expressing human BRS-3 and human Gα16, 50% activation relative to maximum response of nonapeptide [D-Phe6,β-Ala11,Phe13,Nle14]Bn(6-14) (=100%)
# T1 construct: expressed in transfected cells; host or cells: CHO-K1 cells, stably transfected with RD-HGA16 (human Gα16) and pcDNA3.1(-)-BRS-3; single-cell clone selected
# T1 sequence (P32247 1-399): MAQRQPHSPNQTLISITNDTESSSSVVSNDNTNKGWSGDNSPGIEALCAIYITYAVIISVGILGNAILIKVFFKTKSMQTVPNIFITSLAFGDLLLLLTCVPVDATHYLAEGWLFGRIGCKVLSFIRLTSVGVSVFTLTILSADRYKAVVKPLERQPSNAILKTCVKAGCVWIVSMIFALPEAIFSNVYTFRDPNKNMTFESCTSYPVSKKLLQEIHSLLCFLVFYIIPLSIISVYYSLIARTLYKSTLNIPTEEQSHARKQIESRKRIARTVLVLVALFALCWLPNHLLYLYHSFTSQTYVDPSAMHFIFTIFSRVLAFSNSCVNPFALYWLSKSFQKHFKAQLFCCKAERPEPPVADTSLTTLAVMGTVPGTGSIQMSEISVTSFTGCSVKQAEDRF
# Description: For this, CHO cells (=“Chinese hamster ovary cells”) initially were transfected in known manner with an expression vector for the subtype 3 of the human bombesin receptor, i.e. BRS-3.
# The cDNA of the human BRS-3 (nucleotide sequence under GenBank Accession No. L08893) was excised from the plasmid vector pGEM4 (from Promega, USA) using the restriction endonuclease EcoRI and was subcloned into the expression vector pcDNA3.1(−) (from Invitrogen, USA). CHO-K1 cells, which were already stably transfected with the expression vector RD-HGA16, which bears the cDNA sequence of the human Gα16 protein (nucleotide sequence under GenBank Accession No. M63904), were placed in sample plates with 24 sample wells (“24-well plate”) and incubated overnight under sterile conditions in an air-humidified incubator at 37° C. and 5% CO2 in F-12 medium plus Glutamax-I (from GibcoBRL, cat. No. 31765), to which 10%-strength foetal calf serum (inactivated at 56° C. for 1 h, from GibcoBRL), 25 μg/ml gentamicin (from GibcoBRL) and 0.2 mg/ml hygromycin B (from GibcoBRL) had been added. The next day, the cells were transfected with the BRS-3 expression vector by adding, using the “Effectene Transfection Reagent” (from Qiagen), 12 μl of a solution containing 0.3 μg/μl DNA of the expression vector per sample well. One day after transfection, the culture medium was replaced by selection medium. For this, the transfected cells, which each simultaneously express BRS-3 and the human Gα16 protein, were cultivated under sterile conditions at 37° C. and 5% CO2 in F-12 medium plus Glutamax-I (from GibcoBRL, cat. No. 31765), to which 10%-strength foetal calf serum (inactivated at 56° C. for 1 h, from GibcoBRL), 25 μg/ml gentamicin (from GibcoBRL), 0.2 mg/ml hygromycin B (from GibcoBRL) and 0.5 mg/ml geneticin (from GibcoBRL) had been added. To optimize the cell test, the cells with the highest receptor expression rate were selected. For this, the transfected cells were diluted 1:30,000 with the selection medium described above and were placed in sample plates with 96 sample wells (“96-well plate”). The cells were incubated overnight at 37° C. and 5% CO2, then those sample wells which contained only an individual cell were selected. These cells were first started in sample plates with 24 sample wells (“24-well plate”) and then cultivated in Costar plastic flasks (first 25 ml and then 225 ml). The BRS-3 receptor expression of the respective individual cell clone was estimated by determination of the EC50 value of the synthetic nonapeptide [D-Phe^6,β-Ala^11,Phe^13,Nle^14]Bn(6-14) as ligand (for performance of the test see below). The transfected cells were stored at −80° C. in aliquots of 1.8 ml medium each with 10% dimethyl sulfoxide (=DMSO) (cell concentration 1×10^6 cells/ml). For cultivation, a frozen aliquot was heated to 37° C., transferred into a Costar plastic flask (225 ml) and diluted with 50 ml of the selection medium described above. The medium was first changed once after 30 minutes' incubation. On each following first to third day, the medium was removed, the adherent cells (40-95% confluence) were washed with PBS Dulbecco's (from GibcoBRL) and detached from the bottom of the flask by a 2-minute treatment with trypsin-EDTA solution (from GibcoBRL) at 37° C. If the cells were to be cultivated further, they were transferred into a new plastic flask with fresh medium. If experiments were to be carried out with the cells, the cells were transferred into Costar sample plates with 96 sample wells, a clear baseplate and cover (“Costar 96-well assay plates”, from Coming), once the cell concentration had been set to 1.2×10^4 cells/ml.
# BRS-3 is coupled via G-proteins to the Ca^2+-signal transduction path of the CHO cell. If an agonist binds to the receptor, the phospholipase C is activated via the G-protein, and then in turn catalyses the synthesis of water-soluble inositol phosphates. […]
Molecule,EC50 [1],melting point,"peptide concentration at which the maximum change in fluorescence had already been observed ([1]; reference dilution series on each plate, adopted as 100% value)"
"O=C(NNCc1ccc(Cl)cc1)N[C@H](Cc1c[nH]c2ccccc12)C(=O)NCCc1ccccc1 [Example 5, N1-phenethyl-(2R)-2-[N′-(4-chlorobenzyl)-hydrazino]-carboxamido-3-(1H-3-indolyl)-propanamide]",6 nM,75 to 80 °C,–
CC(NCCc1ccccc1)C(=O)NC(Cc1c[nH]c2ccccc12)C(=O)NCCc1ccccc1 (centres unmarked) [Example 26],25 nM,–,–
O=C(Cc1ccccc1)NNC(=O)NC(Cc1c[nH]c2ccccc12)C(=O)NCCc1ccccc1 (centres unmarked) [Example 27],3.1 nM,–,–
"C[C@H](NC(=O)Cc1ccccc1)C(=O)N[C@H](Cc1c[nH]c2ccccc12)C(=O)NCCc1ccccc1 [Example 2, N1-phenethyl-(2R)-2-[(1S)-1-(benzylcarboxamido)-ethyl]-carboxamido-3-(1H-3-indolyl)-propanamide] (PhAc-Ala-[dW]-NHPhenethyl)",2.1 nM,205 to 207 °C,–
CC(NC(=O)Cc1cccnc1)C(=O)NC(Cc1c[nH]c2ccccc12)C(=O)NCCc1ccccc1 (centres unmarked) [Example 19],32 nM,–,–
"O=C(CN1CCC(Cc2ccccc2)CC1)N[C@H](Cc1c[nH]c2ccccc12)C(=O)NCCc1ccccc1 [Example 7, N1-phenethyl-(2R)-2-[(4-benzylpiperidino)-methyl]-carboxamido-3-(1H-3-indolyl)-propanamide]",30 nM,73 to 75 °C,–
O=C(Cc1cc2ccccc2[nH]1)NNC(=O)NC(Cc1c[nH]c2ccccc12)C(=O)NCCc1ccccc1 (centres unmarked) [Example 30],2.2 nM,–,–
O=C(CNCCc1ccccc1)NC(Cc1c[nH]c2ccccc12)C(=O)NCCc1ccccc1 (centres unmarked) [Example 24],17 nM,–,–
"[D-Phe^6,β-Ala^11,Phe^13,Nle^14]Bn(6-14) [nonapeptide, reference compound]",–,–,~16 µM
O=C(CNCc1ccc(Cl)cc1)NC(Cc1c[nH]c2ccccc12)C(=O)NCCc1ccccc1 (centres unmarked) [Example 22],2.9 nM,–,–
O=C(Cc1ccc(Cl)cc1)NNC(=O)NC(Cc1c[nH]c2ccccc12)C(=O)NCCc1ccccc1 (centres unmarked) [Example 28],0.19 nM,–,–
NC(=O)CCC(NC(=O)Cc1cc2ccccc2[nH]1)C(=O)NC(Cc1c[nH]c2ccccc12)C(=O)NCCc1ccccc1 (centres unmarked) [Example 15],57 nM,–,–
"O=C(N/N=C/c1ccco1)N[C@H](Cc1c[nH]c2ccccc12)C(=O)NCCc1ccccc1 [Example 6, N1-phenethyl-(2R)-2-[N′-(furan-2-ylmethylene)-hydrazino]-carboxamido-3-(1H-3-indolyl)-propanamide]",1.5 nM,100 to 101 °C,–
"O=C(Cc1cccnc1)NNC(=O)N[C@H](Cc1c[nH]c2ccccc12)C(=O)NCCc1ccccc1 [Example 4, N1-phenethyl-(2R)-2-{N′-[2-(3-pyridyl)-ethanoyl]-hydrazino}-carboxamido-3-(1H-3-indolyl)-propanamide]",1.4 nM,116 to 120 °C,–
O=C(CNCc1ccccc1)NC(Cc1c[nH]c2ccccc12)C(=O)NCCc1ccccc1 (centres unmarked) [Example 21],21 nM,–,–
"CC(NCc1ccc(Cl)cc1)C(=O)N[C@H](Cc1c[nH]c2ccccc12)C(=O)NCCc1ccccc1 (mixture of isomers) [Example 3, N1-phenethyl-(2R)-2-{1-[(4-chlorobenzyl)-amino]-ethylcarboxamido}-3-(1H-3-indolyl)-propanamide]",4 nM,107 to 110 °C,–
O=C(CNCc1cccnc1)NC(Cc1c[nH]c2ccccc12)C(=O)NCCc1ccccc1 (centres unmarked) [Example 23],21 nM,–,–
